# Data from PMC11091072, “Targeting bacterial nickel transport with aspergillomarasmine A suppresses virulence-associated Ni-dependent enzymes” (Nature Communications, 2024).
# Several values for one entry are separate records, joined by “and”; a condition that tells them apart may be missing. Identical values can stand only once. Like-named read-outs stand apart in the source and are kept apart here.
# What was measured:
# [1] = read-out: KD for Zn^2+; cited from earlier work
# urease = target: T1, urease (Klebsiella pneumoniae subsp. pneumoniae, UniProt A6TE40+A6TE41+A6TE42); experiment: Urease activity in cell-free extracts (NH3 release, indophenol-hypochlorite); type: biochemical; conditions: for direct inhibition of urease: cell-free extract
# T1 construct: endogenous in cells; host or cells: Klebsiella pneumoniae (ATCC 33495), sonicated and cleared lysate
# Protocol: The cells were subsequently lysed by sonication, and cell debris was removed with centrifugation (20,000 × g, 10 min). […] Liberated NH3 was quantified using the indophenol-hypocholorite reaction as previously described. The total amount of protein was quantified by Bradford assay using bovine serum albumin as standard. Each assay was performed in duplicate wells.
# FIG S7 Evaluation of Zn-AMA as a direct inhibitor of urease. A) Checkerboard analysis of Zn-AMA and AHA on urease activity of K. […]
# Dose- […]
# response curves of fluorofamide, Zn-AMA, and AMA inhibiting the urease-catalyzed release of NH3 quantified with indophenol hypochlorite. The rates of NH3 production were measured over 20 min and were normalized to total protein concentration. Experiments were performed in duplicate. Individual replicates are shown as colored circles.
# K. pneumoniae = type: cell-based, Klebsiella pneumoniae
# [2] = Competitive ITC of AMA, Zn2+ and Ni2+ (Ni2+ affinity of AMA); type: binding; conditions: competition ITC, 25 mM Tris-HCl, 150 mM NaCl, pH 7.5, 37 °C; estimated; read-out: KD for Ni^2+
# NikA [3] = target: NikA (Klebsiella pneumoniae, UniProt A6TFA3); type: cell-based; conditions: 250 μM
# AMA affinity for Zn2+ = type: binding; conditions: PAR-based competition assay, authors' reply to reviewer; read-out: Kd for Zn (typical drift)
# [4] = tested on: K. pneumoniae urease activity (Ni2+ uptake); experiment: Competition of Zn-AMA with Ni-(L-His)2 (urease-dependent pH); type: cell-based, Klebsiella pneumoniae
# [5] = tested on: K. pneumoniae urease activity (whole cell); experiment: Checkerboard analysis of Zn-AMA and AHA on urease activity; type: cell-based, Klebsiella pneumoniae
# Protocol: To guide our exploration of the mode of action of Zn-AMA, we investigated whether a chemical-chemical interaction occurs with the urease inhibitor AHA. […] We subsequently performed inductively coupled plasma mass spectrometry (ICP-MS) analyses to evaluate the intracellular Ni^2+ and Zn^2+ content of K. pneumoniae.
# K. pneumoniae whole-cell urease activity was determined with artificial urine containing 0.2% (w/v) casamino acids and 0.01% (w/v) phenol red in 96-well plates. For the growth of S. aureus in artificial urine, the medium was supplemented with 10% LB. After 20–24 hours of growth, bacteria were removed using 0.45 μm filter plates, and the final A550 of the medium was measured using a plate reader.
# FIG S7 Evaluation of Zn-AMA as a direct inhibitor of urease. A) Checkerboard analysis of Zn-AMA and AHA on urease activity of K.
# pneumoniae after growth for 24 h at 37 °C artificial urine. pH is represented by the color scale determined with phenol red. […]
# S. aureus biofilm = experiment: Polystyrene microtiter biofilm assay (crystal violet); type: cell-based, Staphylococcus aureus USA300; conditions: artificial urine or M9
# Protocol: Biofilm assays to assess the effect of Zn-AMA were adapted from a previously described method. Overnight cultures of K. pneumoniae or S. aureus USA300 were diluted in sterile saline (NaCl, 0.9% w/v) to an OD600 of 0.1 and diluted 1/200 in either M9-Cas, or artificial urine. Two-fold dilutions of Zn-AMA were added to the cells in a 96-well round-bottom microtiter plate, and the cells were grown at 37 °C for 18 hours in a static incubator. Following incubation, the microtiter plates were agitated on an orbital shaker (300 rpm, 2 min), the planktonic cells were transferred to a fresh plate, and their OD600 was quantified. The biofilms were washed three times with deionized water, air-dried, and stained with 0.1% crystal violet for 15 min. Excess crystal violet was removed, the plates were washed with deionized water three times, and they were air-dried for 1 hour. The crystal violet-stained biofilms were solubilized in 33% acetic acid (100 μL) for 5 min, and the absorbance (600 nm) was measured. Experiments were performed in four replicates, and absorbance measurements were performed in a BioTek Synergy H1 plate reader.
# Hyd-3 = experiment: [NiFe] hydrogenase zymography; type: cell-based, Escherichia coli BW25113; conditions: 150 µM, E. coli, 100% H2
# Protocol: As described for whole-cell hydrogenase assays, E. coli BW25113 cultures (2 mL) in eight-well cell culture plates were grown under anaerobic conditions. The cells were harvested by centrifugation, resuspended in PBS, and lysed by sonication. Cell debris was removed by centrifugation (21,000 × g, 5 min), and Triton X-100 was added to a final concentration of 1%.
# [NiFe] hydrogenase zymograms were
# performed using E. coli grown in LB-glucose supplemented with 0.5 µM NiCl2 for 24h at 37 °C under anaerobic conditions. The E. coli
# Triton X-100 (5% v/v) solubilized membranes were
# mg/mL benzyl viologen and 1 mg/mL tetrazolium chloride under 100% H2 gas.
# NikA [6] = type: binding, Klebsiella pneumoniae; conditions: 100 μM
# [7] = Chelex-treated nitrogen-limited medium
# T1 sequence (A6TE41 whole entry): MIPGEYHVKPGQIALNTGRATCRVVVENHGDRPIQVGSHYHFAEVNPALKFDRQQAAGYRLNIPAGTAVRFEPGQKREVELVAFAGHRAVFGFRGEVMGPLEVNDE
# T1 sequence (A6TE40 whole entry): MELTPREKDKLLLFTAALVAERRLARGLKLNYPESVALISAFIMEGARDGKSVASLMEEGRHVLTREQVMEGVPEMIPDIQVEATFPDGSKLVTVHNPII
# T1 sequence (A6TE42 whole entry): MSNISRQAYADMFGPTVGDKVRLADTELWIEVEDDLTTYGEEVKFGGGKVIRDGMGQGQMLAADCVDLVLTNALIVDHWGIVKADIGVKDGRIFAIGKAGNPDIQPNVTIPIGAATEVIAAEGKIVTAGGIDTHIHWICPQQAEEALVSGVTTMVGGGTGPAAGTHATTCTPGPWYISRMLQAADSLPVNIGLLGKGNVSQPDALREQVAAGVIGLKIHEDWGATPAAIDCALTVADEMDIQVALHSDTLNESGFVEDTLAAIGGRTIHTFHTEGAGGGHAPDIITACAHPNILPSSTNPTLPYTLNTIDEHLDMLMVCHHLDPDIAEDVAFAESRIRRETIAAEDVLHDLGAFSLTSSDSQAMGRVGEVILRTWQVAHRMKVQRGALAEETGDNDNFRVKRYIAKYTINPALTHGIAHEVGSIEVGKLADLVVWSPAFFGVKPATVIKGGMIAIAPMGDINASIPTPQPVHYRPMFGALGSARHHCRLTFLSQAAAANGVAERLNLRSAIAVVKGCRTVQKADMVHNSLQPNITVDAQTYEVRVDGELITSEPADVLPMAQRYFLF
# NikA (Klebsiella pneumoniae, UniProt A6TFA3), sequence (A6TFA3 entry or part of it): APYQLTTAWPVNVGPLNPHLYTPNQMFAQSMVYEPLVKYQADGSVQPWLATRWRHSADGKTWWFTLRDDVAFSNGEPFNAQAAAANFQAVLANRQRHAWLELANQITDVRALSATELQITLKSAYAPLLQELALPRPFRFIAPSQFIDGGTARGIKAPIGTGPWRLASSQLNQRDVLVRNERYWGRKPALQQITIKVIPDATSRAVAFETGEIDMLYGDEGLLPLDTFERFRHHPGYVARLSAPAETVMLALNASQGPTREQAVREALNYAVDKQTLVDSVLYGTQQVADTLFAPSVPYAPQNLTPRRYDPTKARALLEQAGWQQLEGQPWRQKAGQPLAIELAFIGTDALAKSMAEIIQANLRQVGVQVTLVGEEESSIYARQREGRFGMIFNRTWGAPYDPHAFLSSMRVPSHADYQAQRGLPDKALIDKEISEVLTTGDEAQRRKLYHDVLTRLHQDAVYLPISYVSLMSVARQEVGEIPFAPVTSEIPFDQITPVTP
smiles,measurement,setting,value
"N[C@@H](CN[C@@H](CN[C@@H](CC(=O)O)C(=O)O)C(=O)O)C(=O)O [AMA, aspergillomarasmine A]",Kd,[1],0.2 nM
same,Specific activity (cell-free indophenol urease assay),urease; AMA 0.007813 mM,42.56 nmol/min/mg and 44.10 nmol/min/mg
same,Specific activity (cell-free indophenol urease assay),urease; AMA 0.015625 mM,40.68 nmol/min/mg and 41.88 nmol/min/mg
same,Specific activity (cell-free indophenol urease assay),urease; AMA 0.03125 mM,40.85 nmol/min/mg and 42.39 nmol/min/mg
same,Specific activity (cell-free indophenol urease assay),urease; AMA 0.0625 mM,40.85 nmol/min/mg
same,Specific activity (cell-free indophenol urease assay),urease; AMA 0.125 mM,39.49 nmol/min/mg and 40.51 nmol/min/mg
same,Specific activity (cell-free indophenol urease assay),urease; AMA 0.25 mM,37.95 nmol/min/mg and 38.29 nmol/min/mg
same,Specific activity (cell-free indophenol urease assay),urease; AMA 0.5 mM,35.56 nmol/min/mg and 36.75 nmol/min/mg
same,Specific activity (cell-free indophenol urease assay),urease; AMA 1 mM,35.04 nmol/min/mg and 35.73 nmol/min/mg
same,direct inhibition of urease,urease,excluded the direct inhibition of urease
same,Growth of K. pneumoniae with urea as a sole nitrogen source (OD600),K. pneumoniae,1.19
same,Growth curve (culture density),"K. pneumoniae; 15.15 h, 50 μM",0.165 and 0.162
same,Growth curve (culture density),"K. pneumoniae; 16.15 h, 50 μM",0.186 and 0.183
same,Growth curve (culture density),"K. pneumoniae; 17.15 h, 50 μM",0.218 and 0.214
same,growth with urea as sole nitrogen source,K. pneumoniae; [7],not viable
same,Kd,[2],~0.08 nM and 0.08 nM
same,NikA thermal stability in cells (CETSA),NikA [3],barely detectable at 60 °C
same,Kd,AMA affinity for Zn2+,0.1 to 0.2 nM
N[C@@H](CN[C@@H](CN[C@@H](CC(=O)O)C(=O)O)C(=O)O)C(=O)O.[Zn+2] [Zn-AMA],pH of culture (Zn-AMA v.s. L-His),[4]; Zn-AMA 6.25 μM + L-His 3.12 μM,7.4 and 7.43
same,pH of culture (Zn-AMA v.s. L-His),[4]; Zn-AMA 6.25 μM + L-His 6.25 μM,7.74 and 7.71
same,pH of culture (Zn-AMA v.s. L-His),[4]; Zn-AMA 6.25 μM + L-His 12.5 μM,7.97 and 8.09
same,pH of culture (Zn-AMA v.s. L-His),"[4]; Zn-AMA 6.25 μM, L-His 0 μM",6.53 and 6.52
same,pH of culture (Zn-AMA v.s. L-His),[4]; Zn-AMA 25 μM + L-His 3.12 μM,6.81 and 6.82
same,pH of culture (Zn-AMA v.s. L-His),[4]; Zn-AMA 25 μM + L-His 6.25 μM,7.1 and 7.22
same,pH of culture (Zn-AMA v.s. L-His),[4]; Zn-AMA 25 μM + L-His 12.5 μM,7.41 and 7.51
same,pH of culture (Zn-AMA v.s. L-His),"[4]; Zn-AMA 25 μM, L-His 0 μM",6.38 and 6.37
same,Specific activity (cell-free indophenol urease assay),urease; Zn-AMA 0.007813 mM,45.30 nmol/min/mg and 43.25 nmol/min/mg
same,Specific activity (cell-free indophenol urease assay),urease; Zn-AMA 0.015625 mM,43.59 nmol/min/mg and 42.05 nmol/min/mg
same,Specific activity (cell-free indophenol urease assay),urease; Zn-AMA 0.03125 mM,42.91 nmol/min/mg and 40.51 nmol/min/mg
same,Specific activity (cell-free indophenol urease assay),urease; Zn-AMA 0.0625 mM,42.56 nmol/min/mg and 39.66 nmol/min/mg
same,Specific activity (cell-free indophenol urease assay),urease; Zn-AMA 0.125 mM,42.39 nmol/min/mg and 39.32 nmol/min/mg
same,Specific activity (cell-free indophenol urease assay),urease; Zn-AMA 0.25 mM,39.32 nmol/min/mg and 37.78 nmol/min/mg
same,Specific activity (cell-free indophenol urease assay),urease; Zn-AMA 0.5 mM,36.07 nmol/min/mg and 34.19 nmol/min/mg
same,Specific activity (cell-free indophenol urease assay),urease; Zn-AMA 1 mM,31.28 nmol/min/mg and 28.03 nmol/min/mg
same,direct inhibition of urease,urease,excluded the direct inhibition of urease
same,Growth curve (culture density),K. pneumoniae,0.101 and 0.102 and 0.103 and 0.104 and 0.105 and 0.107 and 0.106 and 0.108
same,Growth curve (culture density),"K. pneumoniae; 15.15 h, 50 μM",0.107 and 0.104
same,Growth curve (culture density),"K. pneumoniae; 16.15 h, 50 μM",0.107 and 0.103
same,Growth curve (culture density),"K. pneumoniae; 17.15 h, 50 μM",0.107 and 0.102
same,growth with urea as sole nitrogen source,K. pneumoniae; [7],did not
same,growth with urea as sole nitrogen source,K. pneumoniae; medium supplemented with 0.25 μM NiCl,inhibited the growth of K. pneumoniae
same,Urease-dependent pH change (pH),"[5]; Zn-AMA 0.39 μM, AHA 0 mM",8.26
same,Urease-dependent pH change (pH),"[5]; Zn-AMA 0.39 μM, AHA 0.1 mM",8.14
same,Urease-dependent pH change (pH),"[5]; Zn-AMA 0.39 μM, AHA 0.2 mM",8.05
same,Urease-dependent pH change (pH),"[5]; Zn-AMA 0.39 μM, AHA 0.4 mM",7.76
same,Urease-dependent pH change (pH),"[5]; Zn-AMA 0.39 μM, AHA 0.5 mM",8.22
same,Urease-dependent pH change (pH),"[5]; Zn-AMA 0.39 μM, AHA 0.8 mM",7.29
same,Urease-dependent pH change (pH),"[5]; Zn-AMA 0.39 μM, AHA 1.6 mM",6.70
same,Urease-dependent pH change (pH),"[5]; Zn-AMA 0.78 μM, AHA 0 mM",8.08
same,Urease-dependent pH change (pH),"[5]; Zn-AMA 0.78 μM, AHA 0.1 mM",7.95
same,Urease-dependent pH change (pH),"[5]; Zn-AMA 0.78 μM, AHA 0.2 mM",7.81
same,Urease-dependent pH change (pH),"[5]; Zn-AMA 0.78 μM, AHA 0.4 mM",7.50
same,Urease-dependent pH change (pH),"[5]; Zn-AMA 0.78 μM, AHA 0.5 mM",8.01
same,Urease-dependent pH change (pH),"[5]; Zn-AMA 0.78 μM, AHA 0.8 mM",7.03
same,Urease-dependent pH change (pH),"[5]; Zn-AMA 0.78 μM, AHA 1.6 mM",6.68
same,Urease-dependent pH change (pH),"[5]; Zn-AMA 1.56 μM, AHA 0 mM",7.83
same,Urease-dependent pH change (pH),"[5]; Zn-AMA 1.56 μM, AHA 0.1 mM",7.46
same,Urease-dependent pH change (pH),"[5]; Zn-AMA 1.56 μM, AHA 0.2 mM",7.19
same,Urease-dependent pH change (pH),"[5]; Zn-AMA 1.56 μM, AHA 0.4 mM",6.86
same,Urease-dependent pH change (pH),"[5]; Zn-AMA 1.56 μM, AHA 0.5 mM",7.51
same,Urease-dependent pH change (pH),"[5]; Zn-AMA 1.56 μM, AHA 0.8 mM",6.64
same,Urease-dependent pH change (pH),"[5]; Zn-AMA 1.56 μM, AHA 1.6 mM",6.51
same,Urease-dependent pH change (pH),"[5]; Zn-AMA 3.12 μM, AHA 0 mM",7.23
same,Urease-dependent pH change (pH),"[5]; Zn-AMA 3.12 μM, AHA 0.1 mM",6.85
same,Urease-dependent pH change (pH),"[5]; Zn-AMA 3.12 μM, AHA 0.2 mM",6.78
same,Urease-dependent pH change (pH),"[5]; Zn-AMA 3.12 μM, AHA 0.4 mM",6.74
same,Urease-dependent pH change (pH),"[5]; Zn-AMA 3.12 μM, AHA 0.5 mM",6.97
same,Urease-dependent pH change (pH),"[5]; Zn-AMA 3.12 μM, AHA 0.8 mM",6.56
same,Urease-dependent pH change (pH),"[5]; Zn-AMA 3.12 μM, AHA 1.6 mM",6.46
same,Urease-dependent pH change (pH),"[5]; Zn-AMA 6.25 μM, AHA 0 mM",6.63
same,Urease-dependent pH change (pH),"[5]; Zn-AMA 6.25 μM, AHA 0.1 mM",6.57
same,Urease-dependent pH change (pH),"[5]; Zn-AMA 6.25 μM, AHA 0.2 mM",6.55
same,Urease-dependent pH change (pH),"[5]; Zn-AMA 6.25 μM, AHA 0.4 mM",6.53
same,Urease-dependent pH change (pH),"[5]; Zn-AMA 6.25 μM, AHA 0.5 mM",6.62
same,Urease-dependent pH change (pH),"[5]; Zn-AMA 6.25 μM, AHA 0.8 mM",6.47
same,Urease-dependent pH change (pH),"[5]; Zn-AMA 6.25 μM, AHA 1.6 mM",6.42
same,Urease-dependent pH change (pH),"[5]; Zn-AMA 12.5 μM, AHA 0 mM",6.63
same,Urease-dependent pH change (pH),"[5]; Zn-AMA 12.5 μM, AHA 0.1 mM",6.46
same,Urease-dependent pH change (pH),"[5]; Zn-AMA 12.5 μM, AHA 0.2 mM",6.52
same,Urease-dependent pH change (pH),"[5]; Zn-AMA 12.5 μM, AHA 0.4 mM",6.45
same,Urease-dependent pH change (pH),"[5]; Zn-AMA 12.5 μM, AHA 0.5 mM",6.47
same,Urease-dependent pH change (pH),"[5]; Zn-AMA 12.5 μM, AHA 0.8 mM",6.43
same,Urease-dependent pH change (pH),"[5]; Zn-AMA 12.5 μM, AHA 1.6 mM",6.40
same,interaction with AHA (checkerboard),[5]; combination of Zn-AMA and AHA,synergistic
same,effect on biofilm production,S. aureus biofilm,anti-biofilm activity was not observed
same,Hyd-3 activity by zymography,Hyd-3,Suppression of Hyd-3 activity
same,effect on stability of recombinant NikA,NikA [6],increase NikA’s stability
